Active and inactive are the calls of the source. No cut-off for these calls is given here.
Legend:
[1] = Inhibition of yeast alpha-glucosidase using p-nitrophenyl-alpha-D-glucopyranoside as substrate preincubated with enzyme for 10 mins followed by substrate addition measured after 20 mins by spectrophotometric method; parameters: species or system Saccharomyces cerevisiae
[2] = Non-competitive inhibition of yeast alpha-glucosidase using p-nitrophenyl-alpha-D-glucopyranoside as substrate by Lineweaver-Burk double reciprocal plot analysis; parameters: species or system Saccharomyces cerevisiae
Saccharomyces cerevisiae = assay: Non-competitive inhibition of yeast alpha-glucosidase assessed as decrease in Vmax with constant Km using p-nitrophenyl-alpha-D-glucopyranoside as substrate by Lineweaver-Burk double reciprocal plot analysis

IC50 [1] | Ki [2] | inhibition (Saccharomyces cerevisiae) | SMILES
6.1 µM |  |  | COc1ccc(C(=O)[C@@H](c2coc3cc(O)ccc3c2=O)C(c2ccc(O)cc2)c2ccc(O)cc2)c(O)c1
1.3 µM |  |  | O=C(/C=C/c1ccc(O)cc1)c1c(O)cc(O)c2c(C(=O)c3ccc(O)cc3O)c(-c3ccc(O)cc3)oc12
2.5 µM |  |  | O=C(/C=C/c1ccc(O)c([C@@H]2C(=O)c3c(O)cc(O)cc3O[C@H]2c2ccc(O)cc2)c1)c1ccc(O)cc1O
178 µM |  |  | COc1ccc(-c2coc3cc4c(c(OC)c3c2=O)OCO4)cc1OC
2.4 µM |  |  | CCCCCCCCCCCC1=C(O)C(=O)C=C(O)C1=O [EMBELIN]
2 µM |  |  | CCCCCCCCCCCC1=C(O)C(=O)C2=C(Oc3cc(O)c4c(c3C2(C)C)O[C@@H](c2ccc(O)c(O)c2)[C@H](O)C4)C1=O
3.2 µM |  |  | O=C(/C=C/c1ccc2oc(-c3ccc(O)cc3)c(C(=O)c3ccc(O)cc3O)c2c1)c1ccc(O)cc1O
93.6 µM |  |  | C[C@H]1O[C@H](O[C@H]2[C@H](O)[C@@H](O)[C@@H](O[C@H]3[C@H](O)[C@@H](O)C(O)O[C@@H]3CO)O[C@@H]2CO)[C@H](O)[C@@H](O)[C@@H]1N[C@H]1C=C(CO)[C@@H](O)[C@H](O)[C@H]1O (stereo partly drawn) [ACARBOSE]
1.4 µM |  |  | CCCCCCCCCCCCCCCC1=C(O)C(=O)C2=C(Oc3cc(O)c4c(c3C2(C)C)O[C@@H](c2ccc(O)c(O)c2)[C@H](O)C4)C1=O
> 200 µM |  |  | COc1ccc(-c2coc3cc4c(c(OC)c3c2=O)OCO4)cc1
1.8 µM |  |  | CCCCCCCCCCCCCC1=C(O)C(=O)C=C(O)C1=O [Rapanone]
5.6 µM |  |  | O=C(/C=C/c1ccc2c(c1)[C@@H](C(=O)c1ccc(O)cc1O)[C@H](c1ccc(O)cc1)O2)c1ccc(O)cc1O
26.6 µM |  |  | O=C(C[C@@H]1C(=O)c2ccc(O)cc2O[C@H]1c1ccc(O)cc1)c1ccc(O)cc1O
1.6 µM |  |  | CCCCCCCCCCCCCC1=C(O)C(=O)C2=C(Oc3cc(O)c4c(c3C2(C)C)O[C@@H](c2ccc(O)c(O)c2)[C@H](O)C4)C1=O
0.4 µM | 3.4 µM | Active | O=C(CCc1ccc(O)cc1)c1c(O)cc(O)c2c(C(=O)c3ccc(O)cc3O)c(-c3ccc(O)cc3)oc12
2.3 µM |  |  | O=C(/C=C/c1ccc2c(c1)[C@H](C(=O)c1ccc(O)cc1O)[C@@H](c1ccc(O)cc1)O2)c1ccc(O)cc1O

Source: ChEMBL document CHEMBL5120781, “α-Glucosidase Inhibitors from the Stems of Knema globularia” (J Nat Prod, 2022)
